Results reported in US20080188530A1 (priority 2004, published 2008).
Read-outs that look alike come from different tables or passages of the source.

Columns and labels:
[1] = system: Pyrenophora [syn. Drechslera] teres; assay: Activity against net blotch of barley caused by Pyrenophora teres (protective spray on potted barley seedlings); assay type: in vivo; conditions: barley cv. Igri, inoculated 5 days after spraying, rated after 6 days, efficacy in % of untreated control (Abbot)
[2] = system: Phytophthora infestans; assay type: in vivo; conditions: tomato plants, infected 5 days after spraying, rated after 6 days, efficacy in % of untreated control (Abbot)

Structure (SMILES)	Observed efficacy (%) ([1]; 16 ppm)	Observed efficacy (%) ([2]; 16 ppm)	Observed efficacy (%) ([1]; 63 ppm)	Observed efficacy (%) ([2]; 63 ppm)
COCC(=O)N(c1c(C)cccc1C)C(C)C(=O)OC (racemic) [metalaxyl, methyl N-(methoxyacetyl)-N-(2,6-xylyl)-DL-alaninate]	0%	–	–	–
O=C(Nc1ccccc1-c1ccc(Cl)cc1)c1cccnc1Cl [boscalid, 2-chloro-N-(4′-chlorobiphenyl-2-yl)nicotinamide]	–	0%	–	–
CO/C=C(/C(=O)OC)c1ccccc1CO/N=C(C)/C=C/c1ccc(Cl)cc1 [enestroburin, methyl 2-{2-[3-(4-chlorophenyl)-1-methylallylideneaminooxymethyl]phenyl}-3-methoxyacrylate]	44%	0%	56%	11%
